Patent publication US9783513B2, “STAT3 inhibitors and their anticancer use” (Ohio State Innovation Foundation, priority 2012, dated 2017)
“Also recorded” adds a separate entry of the source. Where two headings read alike, the source gives them in different places. Each block holds one molecule with its values, some of them ahead of it.

Key:
[1] = test system: human sarcoma cell line U2OS; experiment: Cell viability (MTT) assay, U2OS; assay type: cell-based
Method: (§1) Human sarcoma cell lines (RD2, RH30, U2OS) were seeded in 96-well plates at a density of 3,000 cells per well. The cells were incubated at 37° C. for a period of 24 hours. Different concentrations of LY-5 (0.1-10 μM), LY-3 (0.1-20 μM), and LLL12 (0.1-10 μM) prepared as a 20 mM stock solution in sterile DMSO were added in triplicate to the plates in the presence of 10% FBS. 3-(4,5-Dimethylthiazolyl)-2, 5-diphenyltetrazoliumbromide (MTT) was added to evaluate cell viability. The absorbance was read at 595 nm. IC50 values were determined using SigmaPlot 9.0 Software (Systat Software, Inc., San Jose, Calif.).
(§2) Alternatively, cells were seeded in 96-well plates in triplicate at a density of 3,000 cells per well and given 24 hours to adhere. Cells were then treated with varying concentrations of the inhibitors in the presence of 10% FBS. The cells were incubated for 72 hours at 37° C. 25 μl of MTT dye (Sigma, #M5655) was added to each sample and incubated for 3.5 hours. After this, 100 μl of N,N-dimethylformamide (Sigma, #D4551) solubilization solution was added to each well. The absorbance at 450 nm was read the following day. Half-Maximal inhibitory concentrations (IC50) were determined using Sigma Plot 9.0 software (Systat Software Inc.).
Table 6 below lists specific compounds as well as experimentally determined STAT3 activity in a cell-based assay. The STAT3 activity was determined using the cell viability assays with human sarcoma cell line U2OS as described above. The compounds in Table 6 were synthesized with methods identical or analogous to those described herein. The compound reference numbers (“Ref. No.”) in Table 6 correspond to the compound numbers used in Table 3.

[2] = test system: OSM induced STAT3 phosphorylation; experiment: Western blot, OSM induced STAT3 phosphorylation; assay type: cell-based, human; conditions: MCF-7; 1-2.5 μM; OSM 50 ng/mL
[3] = test system: phosphorylated STAT3 (Tyr705); experiment: Western blot, constitutive STAT3 phosphorylation; assay type: cell-based, human; conditions: RH30
STAT5 = experiment: Western blot, STAT5 after OSM stimulation; assay type: cell-based, human; conditions: MCF-7; 1 and 2.5 μM; OSM 50 ng/mL
Method: (§3) RH30 cells were treated with DMSO, LY-5 (0.25-1 μM) and LY-3 (0.5-2.5 μM) prepared as a 20 mM stock solution in sterile DMSO at 60% to 80% confluence in the presence of 10% FBS for 24 hours. The sarcoma cell line EW8 was treated with DMSO and LY-5 (0.5-2.5 μM) prepared as a 20 mM stock solution in sterile DMSO at 60% to 80% confluence in the presence of 10% FBS for 24 hours. MCF-7 cells and DAOY cells were treated with DMSO, 25-50 ng/ml of IL-6, LY-5 (0.25-1 μM) or LY-3 (0.5-2.5 μM) prepared as a 20 mM stock solution in sterile DMSO, protein expressions of P-STAT3 (Tyr705) and STAT3 were tested. DAOY cells were treated with DMSO, 50 ng/ml of IFN-γ, LY-5 (1-5 μM) prepared as a 20 mM stock solution in sterile DMSO, protein expressions of P-STAT3 (Tyr705) and STAT3 were tested. MCF-7 cells were treated with DMSO, 50 ng/ml of OSM, LY-5 (1-2.5 μM) or LLL12 (1-2.5 μM) prepared as a 20 mM stock solution in sterile DMSO, protein expressions of P-STAT3 (Tyr705), P-STAT1, P-STAT5, P-ERK (T202/Y204), P-AKT, STAT3 and STAT1 were tested.
MCF-7 breast cancer cells were seeded in 10 cm plates and allowed to adhere overnight. The following day, the cells were serum-starved. The cells were then left untreated or were treated with LY-5 and LLL12 (1 μM and 2.5 μM) prepared as a 20 mM stock solution in sterile DMSO or DMSO. […] The cells were harvested after 30 minutes and analyzed by Western blot.

[4] = test system: IL-6 induced STAT3 phosphorylation; experiment: Western blot, IL-6 induced STAT3 phosphorylation; assay type: cell-based, human; conditions: MCF-7; LY-3 0.5-2.5 μM, LY-5 0.25-1 μM; 5 h; IL-6 25 ng/mL
Method: as §3
The cells were harvested and lysed in cold radioimmunoprecipitation assay (RIPA) lysis buffer containing […] and phosphatase inhibitor cocktail, and were subjected to SDS-PAGE. Then they were transferred to PVDF membrane. Membranes were probed with primary antibodies (1:1,000) and horseradish peroxidase (HRP)-conjugated secondary antibody (1:10,000) (Cell Signaling Technology, Beverly, Mass.). Membranes were analyzed using Enhanced Chemiluminescence Plus reagents and scanned with the Storm Scanner (Amersham Pharmacia Biotech, Inc., Piscataway, N.J.).
MCF-7 breast cancer cells were seeded in 10 cm plates and allowed to adhere overnight. The following day, the cells were serum-starved. The cells were then left untreated or were treated with LY-5 (0.25-1 μM) and LY-3 (0.5-2.5 μM) prepared as a 20 mM stock solution in sterile DMSO or DMSO. After 5 hours, the untreated and LY-5 and LY-3 treated cells were stimulated by IL-6 (25 ng/mL). The cells were harvested after 30 minutes and analyzed by Western blot. DAOY medulloblastoma cancer cells were seeded in 10 cm plates and allowed to adhere overnight. The following day, the cells were serum-starved. The cells were then left untreated or were treated with LY-5 (1-5 μM) prepared as a 20 mM stock solution in sterile DMSO or DMSO. After 2 hours, the untreated and LY-5 treated cells were stimulated by IL-6 (25 ng/mL). The cells were harvested after 30 minutes and analyzed by Western blot.

[5] = test system: human sarcoma cell line RH30; experiment: Cell viability (MTT) assay, RH30; assay type: cell-based
Method: as §1, §2
(§4) Table 7 below lists specific compounds as well as experimentally determined STAT3 activity in a cell-based assay. The STAT3 activity was determined using the cell viability assays with human sarcoma cell lines (RD2, RH30, U2OS) as described above. The compound reference numbers (“Ref. No.”) in Table 7 correspond to the compound numbers used in Table 3.

[6] = test system: human sarcoma cell line RD2; experiment: Cell viability (MTT) assay, RD2; assay type: cell-based
Method: as §1, §2, §4

STAT3 = STAT3 (Homo sapiens, UniProt P40763); experiment: Microscale thermophoresis binding to STAT3; conditions: labeled STAT3 30 nM; LY17 1.52-50,000 nM
Method: The method provides the dissociation constant, KD. The microscale thermophoresis experiments were carried out at NanoTemper Technologies, Inc. (Munich, Germany). In these experiments, the concentration of the NanoTemper-labeled STAT3 was kept constant (30 nM), while the concentration of the non-labeled binding partner (LY17) was varied between 1.52 nM-50,000 nM. After a short incubation the samples were loaded into MST standard glass capillaries and the MST-analysis was performed using the Monolith.NT115.

[7] = Homo sapiens, Table 8, read-out: IC50 values vs. cell lines, U2OS
[8] = Homo sapiens, Table 2, cell line not given, read-out: IC50

Chain of STAT3 (P40763 whole entry): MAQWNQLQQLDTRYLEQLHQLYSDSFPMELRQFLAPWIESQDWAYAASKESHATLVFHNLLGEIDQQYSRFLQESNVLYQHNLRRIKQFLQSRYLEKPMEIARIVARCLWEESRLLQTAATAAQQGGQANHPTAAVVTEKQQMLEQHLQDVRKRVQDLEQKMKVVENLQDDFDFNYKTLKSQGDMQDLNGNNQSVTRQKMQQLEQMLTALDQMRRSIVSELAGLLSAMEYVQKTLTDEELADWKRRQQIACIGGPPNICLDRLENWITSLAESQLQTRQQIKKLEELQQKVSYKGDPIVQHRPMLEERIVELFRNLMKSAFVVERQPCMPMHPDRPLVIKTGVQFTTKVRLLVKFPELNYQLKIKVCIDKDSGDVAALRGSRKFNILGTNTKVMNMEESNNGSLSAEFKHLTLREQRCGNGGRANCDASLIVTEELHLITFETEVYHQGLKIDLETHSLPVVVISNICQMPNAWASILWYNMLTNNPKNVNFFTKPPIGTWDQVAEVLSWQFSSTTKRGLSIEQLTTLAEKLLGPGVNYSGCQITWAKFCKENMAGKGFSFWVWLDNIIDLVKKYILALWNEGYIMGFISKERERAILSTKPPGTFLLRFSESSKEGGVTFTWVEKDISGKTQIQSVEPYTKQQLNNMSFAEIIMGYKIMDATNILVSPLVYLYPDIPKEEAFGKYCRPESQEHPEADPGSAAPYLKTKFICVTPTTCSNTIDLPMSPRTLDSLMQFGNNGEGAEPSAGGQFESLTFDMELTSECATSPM

Molecule: 4-(naphthalen-2-ylamino)-5H-naphtho[1,8-cd]isothiazol-5-one 1,1-dioxide [LY-6]
IC50 ([1]; Table 6, read-out: IC50): 2500 nM

Molecule: 5,8-dioxo-6-(phenylamino)-5,8-dihydronaphthalene-1-sulfonamide [LY-7]
IC50 ([1]; Table 2, cell line not given, read-out: IC50): 2500 nM

Molecule: NS(=O)(=O)c1cccc2c1C(=O)c1cccc(O)c1C2=O [LLL12, 5-hydroxy-9,10-dioxo-9,10-dihydroanthracene-1-sulfonamide, reference compound]
OSM induced STAT3 phosphorylation [2]: inhibit
IC50 [1, 7]: 1000 nM
STAT3 phosphorylation at Y705 and S727 ([3]; 5 μM in DMSO or ethanol, 2 h): decrease in STAT3 phosphorylation at Y705 and S727
inhibition of STAT5 (STAT5): exhibit inhibition

Molecule: NS(=O)(=O)c1cccc2c1C(=O)C=C(Nc1ccccc1)C2=O [LY-7, 5,8-dioxo-6-(phenylamino)-5,8-dihydronaphthalene-1-sulfonamide]
IC50 ([1]; Homo sapiens, Table 6, read-out: IC50): > 5000 nM

Molecule: NC(=O)NS(=O)(=O)c1ccc(NC2=CC(=O)c3c(cccc3S(N)(=O)=O)C2=O)cc1 [LY-9]
IC50 [1, 8]: > 5000 nM

More lines, main results first:

IC50 [1, 8]: 5000 nM
Molecule: O=C1C(Nc2ccccc2)=CC2=NS(=O)(=O)c3cccc1c32 [LY-2, 4-(Phenylamino)-5H-naphtho[1,8-cd]isothiazol-5-one 1,1-dioxide]

IC50 [1, 8]: 1400 nM
IC50 ([1]; Homo sapiens, Table 7, read-out: IC50 U2OS): 1390 nM
IC50 [1, 7]: 1390 nM
IC50 ([5]; Table 7, read-out: IC50 RH30): 1140 nM
IC50 ([5]; Table 8, read-out: IC50 values vs. cell lines, RH30): 1140 nM
IC50 ([6]; Table 7, read-out: IC50 RD2): 2560 nM
IC50 ([6]; Table 8, read-out: IC50 values vs. cell lines, RD2): 2560 nM
Molecule: O=C1C(Nc2ccc([N+](=O)[O-])cc2Cl)=CC2=NS(=O)(=O)c3cccc1c32 [LY-3, 4-((2-chloro-4-nitrophenyl)amino)-5H-naphtho[1,8-cd]isothiazol-5-one 1,1-dioxide]
IL-6 induced STAT3 phosphorylation [4]: inhibit; also recorded: blocked the stimulation
concentration almost completely inhibiting Tyr705 phosphorylation ([3]; 16 h): 1 µM
constitutive STAT3 phosphorylation ([3]; LY-3 0.5-2.5 μM, LY-5 0.25-1 μM, 16 h): decrease in STAT3 phosphorylation; also recorded: reduced in a dose-dependent manner

Kd (STAT3): 2420 nM
Molecule: NS(=O)(=O)c1cccc2c1C(=O)C=C(Nc1ccccc1N1CCNCC1)C2=O [LY-17]
